Experimental data reported in patent US20240410907A1, “FLUORESCENT ION INDICATORS AND THEIR APPLICATIONS” (AAT Bioquest, Inc., priority 2023, published 2024).

Tests used:
[1] = Sodium ion response, fluorescence intensity with 60 mM NaCl (Fmax) or without NaCl (F0); conditions: 2.5 μM, Tris-HCl buffer pH 7, 60 mM NaCl (Fmax) vs no NaCl (F0), FIG. 5
Experimental: FIG. 5. Comparisons of Compound 8 and SBFI to sodium ion responses. SBFI (2.5 μM) and Compound 8 (2.5 μM) are added in Tris-HCl buffer (pH-7) with 60 mM NaCl (Fmax) or without NaCl (F0) and their fluorescence intensities are recorded. […] SBFI=Black column; Compound 8=Grey column.

[2] = Excitation and fluorescence spectra in TRIS buffer (pH 7.0) in the presence of 100 mM NaCl; assay type: physicochemical; conditions: 2.5 μM, TRIS buffer pH 7.0, 100 mM NaCl, FIG. 3
Experimental: (§1) FIG. 3. The spectral comparison of SBFI and Compound 8. SBFI (2.5 μM) and Compound 8 (2.5 μM) are dissolved in TRIS buffer (pH 7.0). The excitation and fluorescence spectra are recorded in the presence of 100 mM NaCl. […] The strong and sharp fluorescence emission peak is a critical characteristic required for multicolor analysis.

[3] = Absorption spectra in TRIS buffer (pH 7.0) in the presence of 100 mM NaCl; assay type: physicochemical; conditions: 10 μM, TRIS buffer pH 7.0, 100 mM NaCl, FIG. 1
Experimental: (§2) FIG. 1. The absorption spectral comparison of SBFI and Compound 8. SBFI (10 μM) and Compound 8 (10 μM) are dissolved in TRIS buffer (pH 7.0). The absorption spectra are recorded in the presence of 100 mM NaCl. […] A longer absorption wavelength minimizes the background caused by naturally occurring biological substances.

[4] = Absorption spectra in TRIS buffer (pH 7.0) in the presence of 100 mM KCl; assay type: physicochemical; conditions: 10 μM, TRIS buffer pH 7.0, 100 mM KCl, FIG. 2
Experimental: as §2, with “2.” for “1.”, “PBFI” for “SBFI”, “12. PBFI” for “8. SBFI”, “12” for “8”, “KCl.” for “NaCl.”

[5] = Potassium ion response, fluorescence intensity with 60 mM KCl (Fmax) or without KCl (F0); conditions: 2.5 μM, Tris-HCl buffer pH 7.0, 60 mM KCl (Fmax) vs no KCl (F0), FIG. 6
Experimental: FIG. 6. Comparisons of Compound 12 and PBFI to potassium ion responses. PBFI (2.5 μM) and Compound 12 (2.5 μM) are added in Tris-HCl buffer (pH 7.0) with 60 mM KCl (Fmax) or without KCl (F0) and their fluorescence intensities are recorded. […] PBFI=Black column; Compound 12=Grey column.

[6] = Excitation and fluorescence spectra in TRIS buffer (pH 7.0) in the presence of 100 mM KCl; assay type: physicochemical; conditions: 2.5 μM, TRIS buffer pH 7.0, 100 mM KCl, FIG. 4
Experimental: as §1, with “4.” for “3.”, “PBFI” for “SBFI”, “12. PBFI” for “8. SBFI”, “12” for “8”, “KCl.” for “NaCl.”, “[…]” for “sharp fluorescence emission peak”

fluorescence emission compared with PBFI [6] | Compound | sodium ion response compared with SBFI [1] | fluorescence emission peak compared with SBFI [2] | absorption wavelength compared with SBFI [3] | absorption wavelength compared with PBFI [4] | potassium ion response compared with PBFI [5]
– | COc1ccccc1N1CCOCCOCCN(c2cc(C(=O)O)c(-c3c4cc(F)c(=O)cc-4oc4cc(O)c(F)cc34)cc2OC)CCOCC1 [Compound 8] | much stronger sodium ion response than SBFI | much stronger and sharper fluorescence emission peak | much longer absorption wavelength than SBFI | – | –
much stronger and sharper | COc1ccccc1N1CCOCCOCCN(c2cc(C(=O)O)c(-c3c4cc(F)c(=O)cc-4oc4cc(O)c(F)cc34)cc2OC)CCOCCOCC1 [Compound 12] | – | – | – | much longer absorption wavelength than PBFI | much stronger potassium ion response than PBFI
